Results from DBAASP.
≈ marks a conversion by molar mass, not a printed value. One block for each compound: values may come before it.

Key:
Experiment in all cases: ≥ marks a high value that may be exact or a test limit, other limits are often not marked, values filed in µg/mL are converted to µM
[1] = tested on: Lacticaseibacillus rhamnosus 1.0386
[2] = tested on: Lacticaseibacillus rhamnosus 1.0911
[3] = tested on: Staphylococcus aureus ATCC 29213
[4] = tested on: Lacticaseibacillus rhamnosus 1.0385
[5] = tested on: Lacticaseibacillus rhamnosus 7469
[6] = tested on: Pseudomonas aeruginosa ATCC 27853
[7] = tested on: Escherichia coli ATCC 25922
[8] = tested on: Staphylococcus aureus ATCC 43300
[9] = tested on: Lactiplantibacillus plantarum 8014
[10] = tested on: Lacticaseibacillus rhamnosus 1.0925
[11] = tested on: Staphylococcus epidermidis ATCC 12228
[12] = tested on: Escherichia coli UB1005
[13] = tested on: Salmonella typhimurium ATCC 7731
[14] = tested on: Bacillus subtilis CMCC 63501
[15] = tested on: Salmonella enterica subsp. enterica serovar Typhimurium ATCC 14028
[16] = tested on: Micrococcus luteus ATCC 9341
[17] = tested on: Staphylococcus aureus 1550
[18] = tested on: Staphylococcus aureus ATCC 6538
[19] = tested on: Escherichia coli ATCC 2592
[20] = tested on: Pseudomonas aeruginosa ATCC 9027
[21] = tested on: Candida viswanathii NBRC 10321
[22] = tested on: Staphylococcus epidermidis NBRC 12993
[23] = tested on: Pseudomonas putida NBRC 100650
[24] = tested on: Aspergillus oryzae NBRC 100959
[25] = tested on: Escherichia coli NBRC 3972
[26] = tested on: Micrococcus luteus NBRC 3333
[27] = tested on: Staphylococcus aureus ATCC 12600
[28] = tested on: Streptococcus mutans ATCC 25175
[29] = tested on: Staphylococcus aureus ATCC 25923
[30] = tested on: Escherichia coli ML-35p
[31] = tested on: Listeria ivanovii
[32] = tested on: Saccharomyces cerevisiae
[33] = tested on: Klebsiella pneumoniae ATCC 13883
[34] = tested on: Escherichia coli ATCC 35218
[35] = tested on: Bacillus megaterium
[36] = tested on: Enterococcus faecalis ATCC 29212
[37] = tested on: Staphylococcus aureus ST1065
[38] = tested on: Acinetobacter baumannii ATCC 19606
[39] = tested on: Candida parapsilosis ATCC 22019
[40] = tested on: Candida albicans ATCC 90028
[41] = tested on: Staphylococcus aureus ATCC BAA-44
[42] = tested on: Salmonella enterica subsp. enterica serovar Enteritidis
[43] = tested on: Enterococcus faecalis ATCC 51299
[44] = tested on: Klebsiella pneumoniae ATCC BAA-2814
[45] = tested on: Staphylococcus aureus ATCC BAA-2312
[46] = tested on: Klebsiella pneumoniae ATCC 49472
[47] = tested on: Enterococcus faecium ATCC 19434

MIC [1]: 16 µM (≈ 30.4 µg/mL) | MIC [2]: ≥ 64 µM | MIC [3]: 8 µM (≈ 15.2 µg/mL) | MIC [4]: 16 µM (≈ 30.4 µg/mL) | MIC [5]: ≥ 64 µM | MIC [6]: 8 µM (≈ 15.2 µg/mL) | MIC [7]: 32 µM (≈ 60.8 µg/mL) | MIC [8]: 8 µM (≈ 15.2 µg/mL) | MIC [10]: ≥ 64 µM | MIC [11]: 8 µM (≈ 15.2 µg/mL) | MIC [12]: ≥ 32 µM
SMILES: NC(=O)[C@H](CCCN=C(N)N)NC(=O)[C@H](CCCN=C(N)N)NC(=O)[C@H](Cc1c[nH]c2ccccc12)NC(=O)[C@H](Cc1ccc(O)cc1)NC(=O)[C@H](Cc1c[nH]c2ccccc12)NC(=O)[C@H](Cc1c[nH]c2ccccc12)NC(=O)[C@H](Cc1c[nH]c2ccccc12)NC(=O)[C@H](Cc1ccc(O)cc1)NC(=O)[C@H](Cc1c[nH]c2ccccc12)NC(=O)[C@H](CCCN=C(N)N)NC(=O)[C@@H](N)CCCN=C(N)N [RRWYWWWYWRR]
MIC [9]: 4 µM (≈ 7.6 µg/mL)

MIC [16]: 3.2 µM (≈ 4 µg/mL) | MIC [17]: 17.6 µM (≈ 22 µg/mL) | MIC [18]: 2.49 µM (≈ 3.12 µg/mL) | MIC [19]: 8 µM (≈ 10 µg/mL) | MIC [20]: 4 µM (≈ 5 µg/mL)
SMILES: CC(C)[C@H](NC(=O)[C@H](CCCCN)NC(=O)[C@H](Cc1ccccc1)NC(=O)[C@@H](NC(=O)[C@@H](NC(=O)[C@H](CCCCN)NC(=O)[C@@H](N)CCCCN)C(C)C)C(C)C)C(=O)N[C@@H](CCCCN)C(=O)N[C@@H](Cc1ccccc1)C(=O)N[C@@H](CCCCN)C(=O)O [KKVVFKVKFK]

MIC [21]: 8.15 µM (≈ 12.5 µg/mL) | MIC [22]: 4.08 µM (≈ 6.25 µg/mL) | MIC [23]: 8.15 µM (≈ 12.5 µg/mL) | MIC [24]: 16.3 µM (≈ 25 µg/mL) | MIC [25]: 4.08 µM (≈ 6.25 µg/mL) | MIC [26]: 2.04 µM (≈ 3.13 µg/mL)
SMILES: CC[C@H](C)[C@H](NC(=O)[C@H](CCSC)NC(=O)[C@H](CCCN=C(N)N)NC(=O)[C@H](CCCN=C(N)N)NC(=O)[C@H](CC(C)C)NC(=O)[C@H](Cc1ccc(O)cc1)NC(=O)[C@H](CCCN=C(N)N)NC(=O)[C@H](CCCCN)NC(=O)[C@@H](NC(=O)[C@H](CCCCN)NC(=O)[C@@H](N)CCCN=C(N)N)[C@@H](C)CC)C(=O)O [RKIKRYLRRMI]

MIC [29]: 3.12 µM (≈ 4.99 µg/mL) | MIC [30]: ≥ 50 µM | MIC [31]: 5 µM (≈ 8 µg/mL) | MIC [32]: 12.5 µM (≈ 20 µg/mL) | MIC [33]: ≥ 100 µM | MIC [34]: ≥ 50 µM | MIC [35]: 1.56 µM (≈ 2.5 µg/mL) | MIC [36]: 12.5 µM (≈ 20 µg/mL) | MIC [37]: 3.12 µM (≈ 4.99 µg/mL) | MIC [6]: 60 µM (≈ 96 µg/mL) | MIC [7]: 25 µM (≈ 40 µg/mL) | MIC [38]: 25 µM (≈ 40 µg/mL) | MIC [8]: 3.1 µM (≈ 4.96 µg/mL) | MIC [39]: ≥ 50 µM | MIC [40]: ≥ 100 µM | MIC [41]: 3.12 µM (≈ 4.99 µg/mL) | MIC [42]: ≥ 100 µM
SMILES: CC[C@H](C)[C@H](NC(=O)CNC(=O)[C@H](C)NC(=O)[C@H](CC(C)C)NC(=O)[C@H](C)NC(=O)[C@@H]1CCCN1C(=O)[C@H](CC(C)C)NC(=O)[C@@H](N)Cc1ccccc1)C(=O)N[C@@H](C)C(=O)NCC(=O)N[C@@H](CC(C)C)C(=O)N[C@@H](CC(C)C)C(=O)NCC(=O)N[C@@H](CCCCN)C(=O)N[C@H](C(=O)N[C@@H](Cc1ccccc1)C(N)=O)[C@@H](C)CC [FLPALAGIAGLLGKIF]

More lines, now with the values behind:

SMILES: CC[C@H](C)[C@H](NC(=O)[C@H](C)NC(=O)[C@H](CCCCN)NC(=O)[C@H](Cc1ccc(O)cc1)NC(=O)[C@@H](N)CC(C)C)C(=O)N[C@@H](CCCN=C(N)N)C(=O)N[C@@H](CCCN=C(N)N)C(=O)N[C@@H](CCCCN)C(N)=O [LYKAIRRK]
MIC [13]: ≥ 128 µM | MIC [14]: ≥ 128 µM | MIC [3]: > 128 µM | MIC [15]: > 128 µM | MIC [6]: > 128 µM | MIC [7]: > 128 µM | MIC [11]: > 128 µM | MIC [12]: ≥ 128 µM

SMILES: CC[C@H](C)[C@H](NC(=O)[C@H](C)NC(=O)CNC(=O)[C@H](Cc1ccccc1)NC(=O)[C@H](CC(C)C)NC(=O)CN)C(=O)N[C@@H](C)C(=O)NCC(=O)N[C@@H](Cc1ccccc1)C(=O)N[C@H](C(=O)N[C@@H](CCCCN)C(=O)N[C@@H](CCCCN)C(=O)NCC(=O)N[C@@H](Cc1c[nH]c2ccccc12)C(=O)N1CCC[C@H]1C(=O)NCC(=O)N[C@@H](CC(C)C)C(=O)N[C@H](C(=O)N[C@@H](CCCCN)C(=O)NCC(N)=O)C(C)C)[C@@H](C)CC [GLFGAIAGFIKKGWPGLVKG]
MIC [27]: 3.9 µM (≈ 7.86 µg/mL) | MIC [28]: 1.9 µM (≈ 3.83 µg/mL) | MIC [6]: 15.5 µM (≈ 31.2 µg/mL) | MIC [7]: 7.8 µM (≈ 15.7 µg/mL)

SMILES: CC[C@H](C)[C@H](NC(=O)[C@H](CCC(N)=O)NC(=O)[C@H](CO)NC(=O)[C@H](C)NC(=O)[C@H](CC(C)C)NC(=O)[C@H](Cc1cnc[nH]1)NC(=O)[C@@H](NC(=O)[C@H](CC(C)C)NC(=O)[C@H](CC(C)C)NC(=O)[C@H](CCC(=O)O)NC(=O)[C@H](CCCCN)NC(=O)CNC(=O)[C@H](C)NC(=O)CNC(=O)[C@H](CCCCN)NC(=O)[C@H](Cc1ccccc1)NC(=O)[C@H](Cc1ccccc1)NC(=O)[C@H](CC(=O)O)NC(=O)[C@H](CC(C)C)NC(=O)[C@H](CC(C)C)NC(=O)CN)[C@@H](C)O)C(N)=O [GLLDFFKGAGKELLTHLASQI]
MIC [43]: ≥ 250 µM | MIC [44]: ≥ 125 µM | MIC [15]: 125 µM (≈ 282 µg/mL) | MIC [34]: ≥ 62.5 µM | MIC [27]: ≥ 250 µM | MIC [6]: > 125 µM | MIC [45]: ≥ 250 µM | MIC [46]: ≥ 125 µM | MIC [47]: ≥ 250 µM
